According to US5607937A, “Piperazides of substituted phenylalanine derivatives as thrombin inhibitors” (priority 1993, dated 1997):

Assays:
[1] = system: coagulation in rat plasma; assay: thrombin time in rat plasma after rectal application; format: in vivo
Experimental: After rectal administration of the compounds to be tested, the anticoagulant effect was determined in the plasma of experimental animals.

plasmin = plasmin (Homo sapiens, UniProt P00747); assay: inhibition of plasmin, dissociation constant Ki
plasma kallikrein = plasma kallikrein (Homo sapiens, UniProt P03952); assay: inhibition of plasma kallikrein, dissociation constant Ki
[2] = system: coagulation in human plasma; assay: activated partial thromboplastin time (aPTT) in human plasma

plasma kallikrein, sequence (P03952 391-638 limits assumed, species assumed): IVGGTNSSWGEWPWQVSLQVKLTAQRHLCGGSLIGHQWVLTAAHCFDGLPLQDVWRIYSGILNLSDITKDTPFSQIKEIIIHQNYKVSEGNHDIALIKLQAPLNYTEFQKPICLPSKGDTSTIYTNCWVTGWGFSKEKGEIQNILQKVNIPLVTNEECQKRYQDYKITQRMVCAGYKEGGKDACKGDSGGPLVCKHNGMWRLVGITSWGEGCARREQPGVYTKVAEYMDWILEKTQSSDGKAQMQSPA
plasma kallikrein, sequence (P03952 20-390 partner limits assumed, species assumed): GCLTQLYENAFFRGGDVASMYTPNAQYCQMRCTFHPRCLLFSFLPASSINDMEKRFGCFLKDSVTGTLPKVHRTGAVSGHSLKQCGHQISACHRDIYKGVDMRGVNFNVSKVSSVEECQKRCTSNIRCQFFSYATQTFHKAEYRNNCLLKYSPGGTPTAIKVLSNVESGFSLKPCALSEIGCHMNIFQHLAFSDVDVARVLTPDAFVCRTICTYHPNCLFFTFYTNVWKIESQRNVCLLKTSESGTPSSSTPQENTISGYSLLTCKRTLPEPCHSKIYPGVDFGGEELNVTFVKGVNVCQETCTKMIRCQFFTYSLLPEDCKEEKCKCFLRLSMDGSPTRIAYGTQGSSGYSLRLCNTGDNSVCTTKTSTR
plasmin, sequence (P00747 581-810 limits assumed): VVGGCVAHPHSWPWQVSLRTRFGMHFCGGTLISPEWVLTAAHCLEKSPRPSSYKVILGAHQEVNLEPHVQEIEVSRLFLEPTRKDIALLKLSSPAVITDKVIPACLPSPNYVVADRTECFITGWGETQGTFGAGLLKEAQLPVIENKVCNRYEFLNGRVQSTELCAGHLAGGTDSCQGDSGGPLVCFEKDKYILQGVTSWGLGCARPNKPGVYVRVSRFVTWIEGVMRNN
plasmin, sequence (P00747 97-580 partner limits assumed): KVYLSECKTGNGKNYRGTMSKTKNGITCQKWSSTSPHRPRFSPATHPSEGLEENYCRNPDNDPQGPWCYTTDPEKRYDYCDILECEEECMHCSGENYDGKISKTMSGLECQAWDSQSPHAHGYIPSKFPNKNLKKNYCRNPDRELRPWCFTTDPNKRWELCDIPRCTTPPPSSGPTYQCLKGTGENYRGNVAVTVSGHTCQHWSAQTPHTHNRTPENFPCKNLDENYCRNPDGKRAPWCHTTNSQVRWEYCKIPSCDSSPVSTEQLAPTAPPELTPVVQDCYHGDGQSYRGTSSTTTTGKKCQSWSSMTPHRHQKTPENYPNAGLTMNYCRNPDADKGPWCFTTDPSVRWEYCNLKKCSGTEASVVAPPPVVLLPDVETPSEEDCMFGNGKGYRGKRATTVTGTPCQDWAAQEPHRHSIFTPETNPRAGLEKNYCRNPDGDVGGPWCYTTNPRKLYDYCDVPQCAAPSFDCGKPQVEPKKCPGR

Compound: CC(=O)N1CCN(C(=O)[C@H](Cc2cccc(C(=N)N)c2)NS(=O)(=O)c2ccc3ccccc3c2)CC1.Cl [Compound 2, Nα-(2-naphthylsulfonyl)-(L)-3-amidinophenylalanine-4-acetylpiperazide hydrochloride]
- Clotting time, Thrombin time ([1]; rectal 5 mg/kg, 0 min): 32 s
- Clotting time, Thrombin time ([1]; rectal 5 mg/kg, 30 min): > 300 s
- Clotting time, Thrombin time ([1]; rectal 5 mg/kg, 60 min): 224 s
- Clotting time, Thrombin time ([1]; rectal 5 mg/kg, 120 min): 176 s
- Clotting time, Thrombin time ([1]; rectal 5 mg/kg, 180 min): 107 s
- Clotting time, Thrombin time ([1]; rectal 20 mg/kg, 0 min): 64 s
- Clotting time, Thrombin time ([1]; rectal 20 mg/kg, 30 min): > 300 s
- Clotting time, Thrombin time ([1]; rectal 20 mg/kg, 60 min): > 300 s
- Clotting time, Thrombin time ([1]; rectal 20 mg/kg, 120 min): > 300 s
- Clotting time, Thrombin time ([1]; rectal 20 mg/kg, 180 min): > 300 s
- Ki (plasmin): 5.4 µM
- Ki (plasma kallikrein): 15 µM
- Concentr. to double the aPTT [2]: 0.36 µmol/L
- concentration to double the aPTT [2]: ≤ 1 μmol/1
